# Experimental data published in ChEMBL document CHEMBL1201862, “PubChem BioAssay data set” (2004).
# Calls of active or inactive are those of the source.
# How the values were obtained:
# [1] = target: Peroxisome proliferator-activated receptor gamma/Nuclear receptor coactivator 2 (Homo sapiens, UniProt P37231); format: functional;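 further: agonist potency for raising coactivator recruitment to the receptor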
# [2] = target: Peroxisome proliferator-activated receptor gamma/Nuclear receptor coactivator 1 (Homo sapiens, UniProt P37231); format: functional;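 further: agonist potency as compounds enhance coactivator SRC-1 recruitment to PPARgamma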
# Peroxisome proliferator-activated receptor gamma/Nuclear receptor coactivator 1, sequence (P37231 whole entry): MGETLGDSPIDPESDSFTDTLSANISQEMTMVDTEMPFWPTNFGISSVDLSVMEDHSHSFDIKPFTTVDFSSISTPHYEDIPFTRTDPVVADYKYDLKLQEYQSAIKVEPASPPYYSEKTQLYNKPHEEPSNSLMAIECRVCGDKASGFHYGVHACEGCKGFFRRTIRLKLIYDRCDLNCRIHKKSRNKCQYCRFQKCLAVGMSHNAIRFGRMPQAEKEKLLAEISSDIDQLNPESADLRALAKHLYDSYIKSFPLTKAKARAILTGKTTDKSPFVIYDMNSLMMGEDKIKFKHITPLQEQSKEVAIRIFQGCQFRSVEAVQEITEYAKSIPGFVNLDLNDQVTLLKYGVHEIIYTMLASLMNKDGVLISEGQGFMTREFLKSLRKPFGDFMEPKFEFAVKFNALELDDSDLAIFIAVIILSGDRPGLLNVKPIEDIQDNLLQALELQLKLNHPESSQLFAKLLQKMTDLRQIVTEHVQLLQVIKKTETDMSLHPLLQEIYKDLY
# Peroxisome proliferator-activated receptor gamma/Nuclear receptor coactivator 1, sequence (Q15788 whole entry, further chain): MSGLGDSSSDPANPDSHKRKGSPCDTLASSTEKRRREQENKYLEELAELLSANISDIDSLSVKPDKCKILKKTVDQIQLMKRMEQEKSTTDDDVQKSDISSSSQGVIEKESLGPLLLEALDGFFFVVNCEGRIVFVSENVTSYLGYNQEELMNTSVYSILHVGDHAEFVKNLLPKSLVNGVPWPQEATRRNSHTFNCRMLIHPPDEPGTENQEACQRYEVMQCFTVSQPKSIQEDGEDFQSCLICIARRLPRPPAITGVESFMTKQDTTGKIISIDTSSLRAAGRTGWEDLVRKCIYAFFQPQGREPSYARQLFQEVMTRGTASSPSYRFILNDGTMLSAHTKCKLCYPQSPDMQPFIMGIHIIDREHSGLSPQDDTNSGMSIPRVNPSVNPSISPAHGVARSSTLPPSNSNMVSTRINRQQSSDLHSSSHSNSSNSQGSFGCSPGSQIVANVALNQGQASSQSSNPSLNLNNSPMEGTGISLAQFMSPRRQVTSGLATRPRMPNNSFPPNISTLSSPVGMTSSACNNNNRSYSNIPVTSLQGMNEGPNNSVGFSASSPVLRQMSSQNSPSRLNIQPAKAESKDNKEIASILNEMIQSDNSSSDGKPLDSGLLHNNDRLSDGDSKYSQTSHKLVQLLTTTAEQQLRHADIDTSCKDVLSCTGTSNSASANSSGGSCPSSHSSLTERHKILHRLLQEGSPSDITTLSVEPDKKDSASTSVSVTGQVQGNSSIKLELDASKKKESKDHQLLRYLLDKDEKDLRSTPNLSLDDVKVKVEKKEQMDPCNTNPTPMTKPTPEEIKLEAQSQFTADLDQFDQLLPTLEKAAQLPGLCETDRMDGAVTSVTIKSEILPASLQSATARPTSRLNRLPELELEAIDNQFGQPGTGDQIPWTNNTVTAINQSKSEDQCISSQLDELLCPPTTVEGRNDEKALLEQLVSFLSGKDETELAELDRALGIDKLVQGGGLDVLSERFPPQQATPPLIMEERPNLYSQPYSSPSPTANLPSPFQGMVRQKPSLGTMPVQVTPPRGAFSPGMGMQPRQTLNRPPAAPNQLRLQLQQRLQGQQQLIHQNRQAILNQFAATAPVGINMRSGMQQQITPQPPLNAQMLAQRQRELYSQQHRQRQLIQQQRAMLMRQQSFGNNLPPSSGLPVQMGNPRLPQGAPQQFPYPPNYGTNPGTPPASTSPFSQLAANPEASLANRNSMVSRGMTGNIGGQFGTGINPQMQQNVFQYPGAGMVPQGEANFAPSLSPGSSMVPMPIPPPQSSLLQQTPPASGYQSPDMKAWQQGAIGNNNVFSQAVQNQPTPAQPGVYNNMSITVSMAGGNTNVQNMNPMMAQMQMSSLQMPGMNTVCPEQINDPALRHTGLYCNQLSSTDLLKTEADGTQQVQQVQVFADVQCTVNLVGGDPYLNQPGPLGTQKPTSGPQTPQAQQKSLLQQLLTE
# [3] = target: Peroxisome proliferator-activated receptor gamma/Nuclear receptor coactivator 3 (Homo sapiens, UniProt P37231); format: functional;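 further: agonist potency for raising coactivator recruitment to the receptor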
# [4] = target: Peroxisome proliferator-activated receptor gamma/Nuclear receptor corepressor 2 (Homo sapiens, UniProt P37231+Q9Y618); assay: Counterscreen for NR2E3 inverse agonists: TR-FRET-based biochemical high throughput dose response assay to identify inverse agonists of the interaction between peroxisome proliferator-activated receptor gamma (PPARg) and nuclear receptor co-repressor 2 (NCOR2).; format: functional
# [5] = target: Photoreceptor-specific nuclear receptor (Homo sapiens, UniProt Q9Y5X4); assay: ligands suppressing NR2E3 nuclear receptor activity – biochemical, TR-FRET, dose response (AID 463256); format: functional
# Photoreceptor-specific nuclear receptor, sequence (Q9Y5X4 whole entry, the tested form may be a part): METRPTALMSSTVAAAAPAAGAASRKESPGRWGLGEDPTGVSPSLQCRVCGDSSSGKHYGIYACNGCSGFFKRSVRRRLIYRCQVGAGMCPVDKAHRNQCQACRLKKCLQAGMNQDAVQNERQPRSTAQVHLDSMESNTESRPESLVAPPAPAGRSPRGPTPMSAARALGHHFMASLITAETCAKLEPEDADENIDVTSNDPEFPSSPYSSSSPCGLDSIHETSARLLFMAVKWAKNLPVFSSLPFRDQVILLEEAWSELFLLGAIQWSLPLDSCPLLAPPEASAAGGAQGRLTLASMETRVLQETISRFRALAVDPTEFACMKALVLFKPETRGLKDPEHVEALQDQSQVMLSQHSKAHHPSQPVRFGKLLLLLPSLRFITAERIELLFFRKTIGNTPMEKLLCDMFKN
# [6] = target: T1, RNA-binding protein pos-1 (Caenorhabditis elegans, UniProt G5EF15); assay: disruptors of C. elegans POS-1 RNA interaction – biochemical, fluorescence polarization, dose response (AID 1964);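 further: purified POS-1 fused to maltose binding protein made in E. coli; potency of compounds blocking POS-1 binding to fluorescent RNA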
# T1 sequence (G5EF15 whole entry): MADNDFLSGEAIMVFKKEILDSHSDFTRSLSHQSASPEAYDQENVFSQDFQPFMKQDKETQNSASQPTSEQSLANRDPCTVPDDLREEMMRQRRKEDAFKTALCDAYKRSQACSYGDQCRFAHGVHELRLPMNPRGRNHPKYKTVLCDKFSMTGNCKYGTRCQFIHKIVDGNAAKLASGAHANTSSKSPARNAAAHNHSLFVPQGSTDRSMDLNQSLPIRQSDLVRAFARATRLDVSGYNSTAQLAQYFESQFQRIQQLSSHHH
# [7] = target: T2, Zinc finger protein mex-5 (Caenorhabditis elegans, UniProt Q9XUB2); assay: potency of MEX-5 RNA-binding blockers – biochemical, C. elegans, fluorescence polarization, dose response (AID 1960)
# T2 sequence (Q9XUB2 whole entry): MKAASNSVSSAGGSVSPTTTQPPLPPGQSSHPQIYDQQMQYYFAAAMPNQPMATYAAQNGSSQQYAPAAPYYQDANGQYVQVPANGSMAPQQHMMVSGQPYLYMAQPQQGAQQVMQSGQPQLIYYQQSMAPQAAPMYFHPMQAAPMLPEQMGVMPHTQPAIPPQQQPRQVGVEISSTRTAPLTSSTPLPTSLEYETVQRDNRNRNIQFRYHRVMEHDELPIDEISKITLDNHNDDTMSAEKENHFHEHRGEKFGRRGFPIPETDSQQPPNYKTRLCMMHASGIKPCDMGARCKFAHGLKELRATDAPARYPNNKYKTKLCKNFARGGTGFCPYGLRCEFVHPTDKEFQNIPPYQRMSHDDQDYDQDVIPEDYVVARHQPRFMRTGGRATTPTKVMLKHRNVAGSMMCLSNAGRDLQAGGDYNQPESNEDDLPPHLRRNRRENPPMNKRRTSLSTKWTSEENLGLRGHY
# [8] = target: 14-3-3 protein gamma (Homo sapiens, UniProt P61981); assay: modulators of 14-3-3 gamma client binding – dose response (AID 711); format: functional
# 14-3-3 protein gamma, sequence (P61981 whole entry): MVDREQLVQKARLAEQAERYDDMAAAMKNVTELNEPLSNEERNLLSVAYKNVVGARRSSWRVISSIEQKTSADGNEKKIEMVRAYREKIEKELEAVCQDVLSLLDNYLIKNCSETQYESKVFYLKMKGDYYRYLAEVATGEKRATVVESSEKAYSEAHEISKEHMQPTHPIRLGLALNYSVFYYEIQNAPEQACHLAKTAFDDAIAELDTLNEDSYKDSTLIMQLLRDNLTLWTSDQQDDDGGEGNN
# [9] = Luminescent dose response cell-based high throughput screening assay for inhibitors of the Janus kinase 2 mutant JAK2V617F. [Related pubchem assays: 1446 (Primary screen.), 1521 (Confirmation assay.), 1486 (Counter screen.)]; format: functional
# [10] = tested on: BJ; assay: BJ-TERT fibroblast viability loss – cell-based, RAS-independent, luminescence, dose response (AID 1933); format: functional; settings: Homo sapiens
# [11] = tested on: BJ; assay: cells; format: functional, cell-based; settings: Homo sapiens
# [12] = tested on: BJ; assay: BJ-TERT-LT-ST fibroblast viability loss – cell-based, RAS-independent, luminescence, dose response (AID 1935); format: functional; settings: Homo sapiens;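 further: BJ fibroblasts immortalized with TERT plus LT and ST oncogenes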
# [13] = DRD fibroblast viability loss – cell-based, non-viral oncogenic, luminescence, dose response (AID 1934); format: functional; settings: Homo sapiens
# [14] = NIH-3T3 fibroblast cytotoxicity, dose response, cytotoxicity control, cell-based, fluorescence, Alamar Blue, secondary assay (AID 2327); format: functional;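 further: NIH-3T3 mouse fibroblasts cultured with fluconazole at 8 µg/mL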
# [15] = fluconazole-exposed Candida albicans growth modulators – fluorescence, retest, confirmation (AID 2467); format: functional, cell-based
# [16] = target: T3, Mannose-6-phosphate isomerase (Homo sapiens, UniProt P34949); assay: MPI enzyme activity inhibition – biochemical, fluorescence intensity, coupled assay, primary screen (AID 1209)
# T3 sequence (P34949 whole entry): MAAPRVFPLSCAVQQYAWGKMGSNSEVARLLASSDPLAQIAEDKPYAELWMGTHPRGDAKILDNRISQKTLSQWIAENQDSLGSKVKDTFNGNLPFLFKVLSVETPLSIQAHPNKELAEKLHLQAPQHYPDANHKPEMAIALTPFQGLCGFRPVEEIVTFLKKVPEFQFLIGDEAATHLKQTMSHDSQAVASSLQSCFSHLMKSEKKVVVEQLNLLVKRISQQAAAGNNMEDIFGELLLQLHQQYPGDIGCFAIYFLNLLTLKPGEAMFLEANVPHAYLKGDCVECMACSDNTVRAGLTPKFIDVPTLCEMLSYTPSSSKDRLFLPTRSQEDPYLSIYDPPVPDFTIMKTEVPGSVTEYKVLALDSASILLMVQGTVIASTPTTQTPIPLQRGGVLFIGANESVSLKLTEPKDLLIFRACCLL
# [17] = target: T3, Mannose-6-phosphate isomerase; assay: MPI inhibition at elevated mannose 6-phosphate – biochemical, fluorescence intensity, high mannose 6-phosphate, primary screen (AID 1220)
# [18] = target: Heat shock protein HSP 90-alpha (Homo sapiens, UniProt P07900); format: functional, organism-based
# [19] = target: T4, Rac GTPase-activating protein 1 (Homo sapiens, UniProt Q9H0H5); assay: blockers of MgcRacGAP-driven Rac1 GTP hydrolysis – biochemical, ADP Hunter fluorescence, primary and confirmatory, confirmation (AID 624330); format: functional
# T4 sequence (Q9H0H5 whole entry): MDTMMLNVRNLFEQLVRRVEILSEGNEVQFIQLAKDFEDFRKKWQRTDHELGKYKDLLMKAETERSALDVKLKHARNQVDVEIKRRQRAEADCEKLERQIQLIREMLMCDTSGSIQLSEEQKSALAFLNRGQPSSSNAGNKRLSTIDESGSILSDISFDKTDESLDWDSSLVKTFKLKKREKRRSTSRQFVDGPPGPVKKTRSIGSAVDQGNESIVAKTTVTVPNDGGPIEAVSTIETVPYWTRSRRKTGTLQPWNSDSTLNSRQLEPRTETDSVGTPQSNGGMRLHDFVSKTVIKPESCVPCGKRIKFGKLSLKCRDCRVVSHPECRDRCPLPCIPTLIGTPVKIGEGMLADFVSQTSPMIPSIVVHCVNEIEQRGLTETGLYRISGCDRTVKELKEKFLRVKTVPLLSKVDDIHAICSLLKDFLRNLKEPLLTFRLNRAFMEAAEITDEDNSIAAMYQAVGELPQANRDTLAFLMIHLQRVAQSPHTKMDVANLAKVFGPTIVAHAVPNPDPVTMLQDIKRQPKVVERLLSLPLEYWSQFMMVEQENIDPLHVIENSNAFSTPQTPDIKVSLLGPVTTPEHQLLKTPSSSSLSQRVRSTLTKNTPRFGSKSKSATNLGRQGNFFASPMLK
# Peroxisome proliferator-activated receptor gamma/Nuclear receptor coactivator 2, sequence (P37231 whole entry): as the sequence (P37231 whole entry) above
# Peroxisome proliferator-activated receptor gamma/Nuclear receptor coactivator 2, sequence (Q15596 whole entry, further chain): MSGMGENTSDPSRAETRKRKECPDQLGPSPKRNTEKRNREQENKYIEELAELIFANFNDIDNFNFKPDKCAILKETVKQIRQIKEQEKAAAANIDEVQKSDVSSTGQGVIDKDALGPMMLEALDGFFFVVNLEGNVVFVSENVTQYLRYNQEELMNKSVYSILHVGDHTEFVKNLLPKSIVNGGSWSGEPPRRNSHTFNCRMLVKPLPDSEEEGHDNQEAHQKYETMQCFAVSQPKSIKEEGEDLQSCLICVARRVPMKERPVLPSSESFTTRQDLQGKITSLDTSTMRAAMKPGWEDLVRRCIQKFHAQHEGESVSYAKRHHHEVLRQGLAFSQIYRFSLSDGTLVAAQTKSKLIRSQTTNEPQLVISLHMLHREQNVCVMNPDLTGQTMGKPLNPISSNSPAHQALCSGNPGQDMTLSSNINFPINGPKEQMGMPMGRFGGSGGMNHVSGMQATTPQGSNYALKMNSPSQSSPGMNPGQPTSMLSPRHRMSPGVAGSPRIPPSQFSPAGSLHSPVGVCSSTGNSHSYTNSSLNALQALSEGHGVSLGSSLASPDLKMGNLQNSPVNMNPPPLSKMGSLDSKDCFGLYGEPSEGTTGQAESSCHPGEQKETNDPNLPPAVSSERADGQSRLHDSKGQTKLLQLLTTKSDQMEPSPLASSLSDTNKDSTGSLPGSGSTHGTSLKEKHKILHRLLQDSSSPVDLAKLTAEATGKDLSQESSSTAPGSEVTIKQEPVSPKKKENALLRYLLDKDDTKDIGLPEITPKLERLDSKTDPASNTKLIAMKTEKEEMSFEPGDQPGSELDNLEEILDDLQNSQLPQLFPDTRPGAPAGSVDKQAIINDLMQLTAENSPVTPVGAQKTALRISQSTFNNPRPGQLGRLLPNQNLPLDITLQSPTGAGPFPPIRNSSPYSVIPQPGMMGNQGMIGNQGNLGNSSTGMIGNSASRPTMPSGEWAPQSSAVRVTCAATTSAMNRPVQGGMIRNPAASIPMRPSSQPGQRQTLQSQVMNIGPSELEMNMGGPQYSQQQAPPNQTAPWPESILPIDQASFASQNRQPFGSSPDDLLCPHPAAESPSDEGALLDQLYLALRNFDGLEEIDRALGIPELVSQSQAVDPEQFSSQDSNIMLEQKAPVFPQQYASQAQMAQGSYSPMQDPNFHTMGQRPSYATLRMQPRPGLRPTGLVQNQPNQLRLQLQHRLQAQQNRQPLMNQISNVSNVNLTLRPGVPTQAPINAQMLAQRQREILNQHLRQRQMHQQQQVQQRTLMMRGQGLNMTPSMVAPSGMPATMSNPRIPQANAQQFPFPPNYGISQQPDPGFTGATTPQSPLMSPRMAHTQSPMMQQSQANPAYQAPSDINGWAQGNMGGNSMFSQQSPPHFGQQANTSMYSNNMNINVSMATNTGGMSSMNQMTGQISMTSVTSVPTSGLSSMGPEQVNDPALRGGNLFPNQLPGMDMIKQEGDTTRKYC
compound,measurement,setting,value
Cn1c(SCC(=O)Nc2cccc(Br)c2)nnc1-c1cc2ccccc2o1,EC50,[1],14.5 µM (not active)
same,EC50,[2],13.3 µM (not active)
same,EC50,[3],18.3 µM (not active)
same,IC50,[4],0.152 µM (active)
same,IC50,[5],0.167 µM (active)
CC1=CC(C#N)(C#N)C(C#N)(C#N)C(c2ccccc2)N1 (centres undefined),EC50,[6],3.14 µM (active)
same,EC50,[7],2.46 µM (active)
same,IC50,[8],3.15 µM (active)
COc1ccc(Nc2nc(N)nc(CCl)n2)cc1,IC50,[9],1.45 µM (active)
same,EC50,[10],0.498 µM (inconclusive)
same,EC50,[11],3.57 µM (active)
same,EC50,[12],> 150 µM (inconclusive)
same,EC50,[13],2.25 µM (active)
Cc1ccc(/C=[N+](\[O-])c2ccc(N(C)C)cc2)c2nsnc12,EC50,[14],8.84 µM (inconclusive)
same,EC50,[15],2.41 µM (active)
same,IC50,[16],> 50 µM (not active)
same,IC50,[17],> 50 µM (not active)
same,AC50,[18],7.84 µM (active)
same,IC50,[19],9.25 µM (active)
